The source of these data is ChEMBL document CHEMBL4052695, “Introduction of fluorine to phenyl group of 4-(2-pyrimidinylamino)benzamides leading to a series of potent hedgehog signaling pathway inhibitors” (Bioorg Med Chem Lett, 2017).

Data set [1] in a line: Inhibition of hedgehog signaling pathway in mouse NIH/3T3 cells carrying stably transfected Gli-reporter construct by luciferase reporter assay. It counts as cell-based. The note with it: NIH3T3.
Data set [2] is filed under the species Mus musculus. The data set can be described thus: Potency index, ratio of IC50 for Vismodegib to IC50 for test compound for inhibition of hedgehog signaling pathway in mouse NIH/3T3 cells carrying stably transfected Gli-reporter construct by luciferase reporter assay. It counts as cell-based.
Data set [3] is described as follows: Half life in Sprague-Dawley rat at 1 mg/kg, iv formulated using 5% DMA + 5% Tween-80 measured during 2 mins to 24 hrs post dose by LC/MS/MS method. The format is ADME, organism-based. The note with it: in vivo.
Data set [4] in a line: Half life in Sprague-Dawley rat at 5 mg/kg, po formulated using 5% DMA + 5% Tween-80 measured during 2 mins to 24 hrs post dose by LC/MS/MS method. To be noted: in vivo. It counts as ADME, organism-based.
A short description of data set [5]: Half life in Sprague-Dawley rat at 5 mg/kg, po formulated using 0.5% HPMC + 0.3% Tween-80 (pH = 2.8) measured during 2 mins to 24 hrs post dose by LC/MS/MS method. It counts as ADME, organism-based. The note with it: in vivo.
Data set [6] in a line: Cmax in Sprague-Dawley rat at 1 mg/kg, iv formulated using 5% DMA + 5% Tween-80 measured during 2 mins to 24 hrs post dose by LC/MS/MS method. The format is ADME, organism-based. The arrangement: dose 1 mg/kg, route intravenous. To be noted: in vivo.
Data set [7] can be described thus: Cmax in Sprague-Dawley rat at 5 mg/kg, po formulated using 5% DMA + 5% Tween-80 measured during 2 mins to 24 hrs post dose by LC/MS/MS method. The format is ADME, organism-based. Also on record: dose 5 mg/kg, route oral. To be noted: in vivo.
Data set [8] in a line: Cmax in Sprague-Dawley rat at 5 mg/kg, po formulated using 0.5% HPMC + 0.3% Tween-80 (pH = 2.8) measured during 2 mins to 24 hrs post dose by LC/MS/MS method. The format is ADME, organism-based. The arrangement: dose 5 mg/kg, route oral. The note with it: in vivo.
The nature of data set [9]: AUC (0 to t) in Sprague-Dawley rat at 1 mg/kg, iv formulated using 5% DMA + 5% Tween-80 measured during 2 mins to 24 hrs post dose by LC/MS/MS method. It counts as ADME, organism-based. The arrangement: dose 1 mg/kg, time 0.033-24 hr, route intravenous. To be noted: in vivo.
Data set [10] in a line: AUC (0 to t) in Sprague-Dawley rat at 5 mg/kg, po formulated using 5% DMA + 5% Tween-80 measured during 2 mins to 24 hrs post dose by LC/MS/MS method. The arrangement: time upper 24 hr, time lower 0.033 hr, dose 5 mg/kg, route oral. It counts as ADME, organism-based. The note with it: in vivo.
The nature of data set [11]: AUC (0 to t) in Sprague-Dawley rat at 5 mg/kg, po formulated using 0.5% HPMC + 0.3% Tween-80 (pH = 2.8) measured during 2 mins to 24 hrs post dose by LC/MS/MS method. It counts as ADME, organism-based. Also on record: time 0.033-24 hr, dose 5 mg/kg, route oral. To be noted: in vivo.
The nature of data set [12]: Apparent volume of distribution in Sprague-Dawley rat at 1 mg/kg, iv formulated using 5% DMA + 5% Tween-80 measured during 2 mins to 24 hrs post dose by LC/MS/MS method. The format is ADME, organism-based. To be noted: in vivo, read-out: Vz.
Data set [13] concerns Rattus norvegicus. As to the kind of experiment: Apparent volume of distribution in Sprague-Dawley rat at 5 mg/kg, po formulated using 5% DMA + 5% Tween-80 measured during 2 mins to 24 hrs post dose by LC/MS/MS method. The format is ADME, organism-based. To be noted: in vivo.
For data set [14], the system named is Rattus norvegicus. The data set can be described thus: Apparent volume of distribution in Sprague-Dawley rat at 5 mg/kg, po formulated using 0.5% HPMC + 0.3% Tween-80 (pH = 2.8) measured during 2 mins to 24 hrs post dose by LC/MS/MS method. The format is ADME, organism-based. The note with it: in vivo, pH 2.8, 5 mg/kg.
The nature of data set [15]: Clearance in Sprague-Dawley rat at 1 mg/kg, iv formulated using 5% DMA + 5% Tween-80 measured during 2 mins to 24 hrs post dose by LC/MS/MS method. The format is ADME, organism-based. To be noted: in vivo.
Data set [16] is described as follows: Clearance in Sprague-Dawley rat at 5 mg/kg, po formulated using 5% DMA + 5% Tween-80 measured during 2 mins to 24 hrs post dose by LC/MS/MS method. The format is ADME, organism-based. To be noted: in vivo.
A short description of data set [17]: Clearance in Sprague-Dawley rat at 5 mg/kg, po formulated using 0.5% HPMC + 0.3% Tween-80 (pH = 2.8) measured during 2 mins to 24 hrs post dose by LC/MS/MS method. The format is ADME, organism-based. To be noted: in vivo.
A short description of data set [18]: Mean residence time (0 to t) in Sprague-Dawley rat at 1 mg/kg, iv formulated using 5% DMA + 5% Tween-80 measured during 2 mins to 24 hrs post dose by LC/MS/MS method. It counts as ADME, organism-based. To be noted: in vivo.
Data set [19] is described as follows: Mean residence time (0 to t) in Sprague-Dawley rat at 5 mg/kg, po formulated using 5% DMA + 5% Tween-80 measured during 2 mins to 24 hrs post dose by LC/MS/MS method. To be noted: in vivo. It counts as ADME, organism-based.
A short description of data set [20]: Mean residence time (0 to t) in Sprague-Dawley rat at 5 mg/kg, po formulated using 0.5% HPMC + 0.3% Tween-80 (pH = 2.8) measured during 2 mins to 24 hrs post dose by LC/MS/MS method. The format is ADME, organism-based. The note with it: in vivo.

A value given as a limit tells only on which side of the number the result lay.

Consider `Cc1ccc(CN2CCCC2)cc1NC(=O)c1ccc(Nc2ncc(C)c(-c3ccc(OC(F)(F)F)cc3)n2)c(F)c1`, for which, in data set [1], inhibition was half-maximal at 2.03 nM (IC50).
Turning to `Cc1ccc(CN2CCN(C)CC2)cc1NC(=O)c1ccc(Nc2ncc(F)c(-c3ccc(OC(F)(F)F)cc3)n2)c(F)c1`, it took 5.67 nM to reach half-maximal inhibition in [1] (IC50).
As for `Cc1ccc(CN(C)C)cc1NC(=O)c1ccc(Nc2ncc(C)c(-c3ccc(OC(F)(F)F)cc3)n2)c(F)c1`, in [1], the midpoint of inhibition, the IC50, lay at 0.78 nM. Besides, in data set [2], the Ratio IC50 is over 8.
Compound `Cc1ccc(CN2CCN(C)CC2)cc1NC(=O)c1ccc(Nc2nccc(-c3cccnc3)n2)c(F)c1` registered a concentration for half-maximal inhibition (IC50) in [1] of 7.2 nM.
On the same count and under the same terms, then `Cc1ccc(CN2CCOCC2)cc1NC(=O)c1ccc(Nc2ncc(C)c(-c3ccccn3)n2)c(F)c1`, with 1.15 nM; and `Cc1ccc(CN2CCN(C)CC2)cc1NC(=O)c1ccc(Nc2ncc(F)c(-c3ccncc3)n2)c(F)c1`, with 42.7 nM.
The compound `Cc1ccc(CN2CCN(C)CC2)cc1NC(=O)c1ccc(Nc2ncc(C)c(-c3ccc(OC(F)(F)F)cc3)n2)c(F)c1` came in with an IC50 in data set [1] of 0.93 nM. Also, the Ratio IC50 in data set [2] is over 8. Moreover, the half-life was 13.5 h in data set [3], 14.9 h in [4] and 11.7 h in data set [5]. In addition, the Cmax in [6] stood at 225 ng/mL; in data set [7], 62.4 ng/mL; in [8] it was 57.1 ng/mL. Also, the AUC(0-t) in data set [9] is 383 ng·h/mL; in data set [10] it was 956 ng·h/mL; in [11] it was 882 ng·h/mL. In addition, the Vd in data set [12] was determined as 37.4 L/kg. Further, the Vz stood at 71.6877 L/kg in data set [13] and 69.4647 L/kg in data set [14]. Also, the clearance in data set [15] was 32.2 mL/min/kg. For the same compound, the values for the CL/F in data set [16] and in data set [17] were 55.7 mL/min/kg and 68.7 mL/min/kg, respectively. For the same compound, the MRT last in data set [18] stood at 7.93 h; in [19] it was 10.7 h; in data set [20] it was 10.3 h.
For the compound `Cc1ccc(CN2CCOCC2)cc1NC(=O)c1ccc(Nc2ncc(C)c(-c3ccccc3)n2)c(F)c1`, the IC50 in data set [1] came out at 0.05 nM. Also, in [2], the Ratio IC50 was found to be 150.
Regarding `Cc1ccc(OCCCN2CCOCC2)cc1NC(=O)c1ccc(Nc2ncc(C)c(-c3ccc(OC(F)(F)F)cc3)n2)c(F)c1`, half-maximal inhibition in [1] (IC50) was put at 1.02 nM.
Take `Cc1ccc(CN2CCCCC2)cc1NC(=O)c1ccc(Nc2ncc(C)c(-c3ccc(OC(F)(F)F)cc3)n2)c(F)c1`: the 50% inhibitory concentration (IC50) in [1] was 0.94 nM. In [2], the Ratio IC50 was over 8.
`CCN(CC)Cc1ccc(C)c(NC(=O)c2ccc(Nc3ncc(C)c(-c4ccc(OC(F)(F)F)cc4)n3)c(F)c2)c1` returned a 50% inhibitory concentration (IC50) in data set [1] of 0.9 nM. For the same compound, in data set [2], the Ratio IC50 is over 8.
For `Cc1ccc(OCCN2CCOCC2)cc1NC(=O)c1ccc(Nc2ncc(C)c(-c3ccc(OC(F)(F)F)cc3)n2)c(F)c1`, in that order: 0.71 nM and over 8.
Taken in the same sequence, the figures for `Cc1ccc(CN2CCOCC2)cc1NC(=O)c1ccc(Nc2ncc(C)c(-c3ccc(OC(F)(F)F)cc3)n2)c(F)c1` were 0.5 nM and 14.
Turning to `CS(=O)(=O)c1ccc(C(=O)Nc2ccc(Cl)c(-c3ccccn3)c2)c(Cl)c1` [VISMODEGIB], the 50% inhibitory concentration (IC50) in data set [1] worked out at 7.2 nM.
As for `Cc1ccc(CN2CCOCC2)cc1NC(=O)c1ccc(Nc2nccc(-c3cnn(C)c3)n2)c(F)c1`, the concentration for half-maximal inhibition (IC50) in [1] was 48.9 nM. This IC50 is about 6.8-fold higher than that of the compound before.
